In patent publication US20100267561A1, “HERBICIDAL PYRIDAZINONE DERIVATIVES” (priority 2007, published 2010):

Experiments:
Format in all cases: in vivo
[1] = test system: Italian ryegrass (Lolium multiflorum); test: Test B pre-/postemergence plant response
In short: (§1)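 Seeds were sown and sprayed preemergence, while plants at 2 to 18 cm (1- to 4-leaf stage) got postemergence sprays. Compounds were formulated in a non-phytotoxic solvent mixture with surfactant. After 13 to 15 days in a greenhouse, injury was rated visually against untreated controls, 0 (no effect) to 100 (complete control).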

[2] = test system: bermudagrass (Cynodon dactylon); test: Test B pre-/postemergence plant response; details: for Bermudagrass plant response rating: 8 g ai/ha
In short: as §1

[3] = test system: catchweed bedstraw (Galium aparine); test: Test B pre-/postemergence plant response; details: Preemergence; 8 g ai/ha; scale 0 to 100
In short: as §1

[4] = test system: giant foxtail (Setaria faberii); test: Test B pre-/postemergence plant response
In short: as §1

[5] = test system: goosegrass (Eleusine indica); test: Test B pre-/postemergence plant response
In short: as §1

[6] = test system: johnsongrass (Sorghum halepense); test: Test B pre-/postemergence plant response
In short: as §1

kochia (Kochia scoparia) = test: Test B pre-/postemergence plant response
In short: as §1

[7] = test system: lambsquarters (Chenopodium album); test: Test B pre-/postemergence plant response
In short: as §1

[8] = test system: large crabgrass (Digitaria sanguinalis); test: Test B pre-/postemergence plant response
In short: as §1

[9] = test system: morningglory (Ipomoea coccinea); test: Test B pre-/postemergence plant response
In short: as §1

[10] = test system: pigweed (Amaranthus retroflexus); test: Test B pre-/postemergence plant response
In short: as §1

soybean (Glycine max) = test: Test B pre-/postemergence plant response
In short: as §1

[11] = test system: velvetleaf (Abutilon theophrasti); test: Test B pre-/postemergence plant response
In short: as §1

rice (Oryza sativa) = test: Test B flooded paddy test plant response
In short: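 Compounds were added directly to paddy water over 2-leaf-stage plants in pots flooded 3 cm above soil, water depth maintained. Visual injury scored against controls after 13 to 15 days in greenhouse, 0 (none) to 100 (complete control); dash indicates no result.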

[12] = 8 g ai/ha, postemergence, 0-100 scale
[13] = Postemergence, 16 g ai/ha, scale 0 to 100
[14] = Postemergence, 31 g ai/ha, scale 0 to 100
[15] = Postemergence, 62 g ai/ha, scale 0 to 100, 0 no effect, 100 complete control
[16] = Preemergence, 31 g ai/ha, scale 0 to 100 (0 no effect, 100 complete control)
[17] = Preemergence, 62 g ai/ha, scale 0 to 100
[18] = Preemergence, 8 g ai/ha, scale 0 to 100
[19] = Preemergence, 16 g ai/ha, scale 0 to 100
[20] = Preemergence, 31 g ai/ha, 0 to 100 scale, 0 no effect, 100 complete control

CCOC(=O)Oc1cnn(C)c(=O)c1-n1nc(-c2ccc(Cl)cc2)cc1C [Compound 53]
Ryegrass, Italian plant response rating [1, 12]: 85 | Plant response rating, Ryegrass, Italian [1, 13]: 90 | Plant response rating, Ryegrass, Italian [1, 14]: 100 | Plant response rating, Ryegrass, Italian [1, 15]: 100 | Plant response rating, Ryegrass, Italian [1, 16]: 100 | Plant response rating, Ryegrass, Italian [1, 17]: 100 | Ryegrass, Italian plant response rating [1, 18]: 80 | Ryegrass, Italian plant response rating [1, 19]: 100 | Bermudagrass plant response rating ([2]; postemergence, 0-100 scale): 70 | Plant response rating, Bermudagrass [2, 13]: 100 | Plant response rating, Bermudagrass [2, 14]: 100 | Plant response rating, Bermudagrass [2, 15]: 100 | Bermudagrass plant response rating ([2]; Preemergence, scale 0 to 100 (0 no effect, 100 complete control)): 0 | Plant response rating, Bermudagrass ([2]; Preemergence, 16 g ai/ha, scale 0 to 100 (0 no effect, 100 complete control)): 0 | Plant response rating, Bermudagrass [2, 20]: 0 | Plant response rating, Bermudagrass [2, 17]: 0 | Galium plant response rating [3]: 0 | Foxtail, Giant plant response rating [4, 12]: 85 | Plant response rating, Foxtail, Giant [4, 13]: 95 | Plant response rating, Foxtail, Giant [4, 14]: 100 | Plant response rating, Foxtail, Giant [4, 15]: 100 | Plant response rating, Foxtail, Giant [4, 20]: 45 | Plant response rating, Foxtail, Giant [4, 17]: 70 | Foxtail, Giant plant response rating [4, 18]: 0 | Foxtail, Giant plant response rating [4, 19]: 20 | Goosegrass plant response rating [5, 12]: 20 | Plant response rating, Goosegrass [5, 13]: 60 | Plant response rating, Goosegrass [5, 14]: 65 | Plant response rating, Goosegrass [5, 15]: 100 | Plant response rating, Goosegrass [5, 20]: 0 | Plant response rating, Goosegrass [5, 17]: 0 | Goosegrass plant response rating [5, 18]: 0 | Goosegrass plant response rating [5, 19]: 0 | Johnsongrass plant response rating [6, 12]: 35 | Plant response rating, Johnsongrass [6, 13]: 70 | Plant response rating, Johnsongrass [6, 14]: 98 | Plant response rating, Johnsongrass [6, 15]: 100 | Plant response rating, Johnsongrass [6, 20]: 75 | Plant response rating, Johnsongrass [6, 17]: 100 | Johnsongrass plant response rating [6, 18]: 45 | Johnsongrass plant response rating [6, 19]: 65 | Kochia plant response rating (kochia (Kochia scoparia); [12]): 0 | Plant response rating, Kochia (kochia (Kochia scoparia); [13]): 0 | Plant response rating, Kochia (kochia (Kochia scoparia); [14]): 0 | Plant response rating, Kochia (kochia (Kochia scoparia); [15]): 0 | Plant response rating, Kochia (kochia (Kochia scoparia); [20]): 0 | Lambsquarters plant response rating [7, 12]: 0 | Plant response rating, Lambsquarters [7, 13]: 0 | Plant response rating, Lambsquarters [7, 14]: 0 | Plant response rating, Lambsquarters [7, 15]: 0 | Plant response rating, Lambsquarters [7, 20]: 0 | Plant response rating, Lambsquarters [7, 17]: 35 | Lambsquarters plant response rating [7, 18]: 0 | Lambsquarters plant response rating [7, 19]: 0 | Crabgrass, Large plant response rating [8, 12]: 65 | Plant response rating, Crabgrass, Large [8, 13]: 85 | Plant response rating, Crabgrass, Large [8, 14]: 90 | Plant response rating, Crabgrass, Large [8, 15]: 100 | Plant response rating, Crabgrass, Large [8, 20]: 0 | Plant response rating, Crabgrass, Large [8, 17]: 0 | Crabgrass, Large plant response rating [8, 18]: 0 | Crabgrass, Large plant response rating [8, 19]: 0 | Morningglory plant response rating [9, 12]: 0 | Plant response rating, Morningglory [9, 13]: 0 | Plant response rating, Morningglory [9, 14]: 0 | Plant response rating, Morningglory [9, 15]: 0 | Plant response rating, Morningglory [9, 16]: 0 | Plant response rating, Morningglory [9, 17]: 0 | Morningglory plant response rating [9, 18]: 0 | Morningglory plant response rating [9, 19]: 0 | Pigweed plant response rating [10, 12]: 0 | Plant response rating, Pigweed [10, 13]: 0 | Plant response rating, Pigweed [10, 14]: 0 | Plant response rating, Pigweed [10, 15]: 0 | Plant response rating, Pigweed [10, 16]: 0 | Plant response rating, Pigweed [10, 17]: 0 | Pigweed plant response rating [10, 18]: 0 | Pigweed plant response rating [10, 19]: 0 | Soybean plant response rating (soybean (Glycine max); [12]): 0 | Plant response rating, Soybean (soybean (Glycine max); [13]): 0 | Plant response rating, Soybean (soybean (Glycine max); [14]): 0 | Plant response rating, Soybean (soybean (Glycine max); [15]): 0 | Plant response rating, Soybean (soybean (Glycine max); [16]): 0 | Plant response rating, Soybean (soybean (Glycine max); [17]): 65 | Soybean plant response rating (soybean (Glycine max); [18]): 0 | Soybean plant response rating (soybean (Glycine max); [19]): 0 | Velvetleaf plant response rating [11, 12]: 0 | Plant response rating, Velvetleaf [11, 13]: 0 | Plant response rating, Velvetleaf [11, 14]: 0 | Plant response rating, Velvetleaf [11, 15]: 0 | Plant response rating, Velvetleaf [11, 16]: 0 | Plant response rating, Velvetleaf ([11]; Preemergence, 62 g ai/ha, 0 to 100 scale, 0 no effect, 100 complete control): 0 | Velvetleaf plant response rating [11, 18]: 0 | Velvetleaf plant response rating [11, 19]: 0 | Plant response rating, Rice (rice (Oryza sativa); Flood (flooded paddy test), 62 g ai/ha, scale 0 to 100, 0 no effect, 100 complete control): 0 | Plant response rating, Rice (rice (Oryza sativa); Flood (flooded paddy test), 125 g ai/ha, scale 0 to 100, 0 no effect, 100 complete control): 0 | Plant response rating, Rice (rice (Oryza sativa); Flood (flooded paddy test), 250 g ai/ha, scale 0 to 100, 0 no effect, 100 complete control): 30 | Plant response rating, Rice (rice (Oryza sativa); Flood, 31 g ai/ha, scale 0 to 100): 0
